# Laboratory results as given in US10695425B2, “Methods for treating and/or limiting development of diabetes in subjects with amyotrophic lateral sclerosis” (Biocrine AB, priority 2015, dated 2020).
# System: αTC1-6 cells
# Assay: K+ depolarization-induced [Ca2+]i response in αTC1-6 cells (fura-2)
# Format: cell-based, mouse
# Conditions: αTC1-6 cells pre-exposed to specific Ca2+ channel blocker
# Procedure: A glucose concentration of 11 mM was used for islet stimulation. After loading, islets and cells on the glass coverslips were transferred to an open perifusion chamber maintained at 37° C. and [Ca^2+]i measured as the 340/380 nm ratio. The light source was equipped with a xenon arc lamp and an integrated shutter (Lambda DG-4, Sutter instrument company), and coupled to the microscope (Olympus ix 71) via a liquid light guide. The 16-bit grayscale images with a binning of 1×1 were captured every 1 s (exposure time ranged from 100 to 300 ms) with a cooled EM-CCD camera (ImagEM X2, Hamamatsu). The camera and shutter were controlled by METAFLUOR® (Molecular Devices) software, which was also used for analysis. Cells with bright [Ca^2+]i signal defined the regions of interest (ROIs). ROI signals were calculated by subtracting background noise signal.
substance,measurement,value
w-agatoxin TK,blocker-sensitive share of K+ depolarization-induced [Ca2+]i increase,considerable number
